Here are results for 3 compounds from patent US7732398B2, “Medicinal uses of mu-opioid receptor agonists” (Cornell Research Foundation, Inc., priority 2000, dated 2010).

“And” between values parts separate entries of the source, which are not always exact repeats. Equal entries are not always repeated. Marks after values point to notes of the source that are not given here.

The test system of series [1] is Male Sprague-Dawley rats. Nature of the series: Behavioral effects after intrathecal administration. It counts as in vivo, rat. Conditions: for rigidity of the caudal part of the body: higher dose (30 times ED50). An excerpt:
However, they retained their righting reflex.

The subject of series [2] is Male Sprague-Dawley rats. The experiment in a line: Rat tail-flick test, antinociceptive effects after intrathecal administration. It counts as in vivo. Conditions: for time for which tail-flick latencies were significantly greater than baseline: 3 times ED50, direct percutaneous intrathecal injection, n=8; for Response Latencies: 3 times ED50 intrathecal, at peak analgesia; for Potency Ratios: antinociceptive potency relative to intrathecal morphine (=1); for EDT50: cumulative dose-response, quantal tail-flick test, n=10; for Baseline Latencies: tail-flick latency prior to the administration of any drug, n=4. As for the experimental part: Male Sprague-Dawley rats (300-350 g) were used.
Under light halothane anesthesia a needle connected to a Hamilton syringe was inserted percutaneously between spinal processes of the third and fourth lumbar vertebrae into the intrathecal space. A quick flick of the tail was observed when the tip of the needle entered the intrathecal space and was used as an indicator of successful puncture (Mestre et al., 1994). Drugs were delivered in a volume of 5 μl.
Intrathecal catheterization was performed at least two days prior to the experiment as previously described (Shimoyama et al., 1996). Briefly, under halothane anesthesia, a PE-10 tube was inserted through a small hole made in the atlanto-occipital membrane and threaded 8.5 cm down the intrathecal space to the lumbosacral level of the spinal cord. Drugs were delivered via the catheter in a volume of 5 μl, followed by 10 μl saline to flush the catheter.
To assess the antinociceptive effects of the opioids, the tail-flick test was used. Radiant heat was applied to the tail at 5-8 cm from the tip using a tail-flick apparatus (IITC, Woodland Hills, Calif.). The time from the onset of the heat to the withdrawal of the tail (tail-flick latency) was measured. The intensity of the radiant heat was adjusted so that baseline latencies would fall between 2.5 and 3.5 seconds. To avoid tissue damage the heat stimulus was discontinued after seven seconds. A baseline latency was obtained for each animal prior to the administration of any drug. Subsequent response latencies were determined at designated time points. Analgesic testing was performed by a blinded investigator.
Cumulative dose-response studies were performed for each drug using the tail-flick test (Shimoyama et al., 1996), (Shimoyama et al., 1997). Each drug was tested in a group of ten rats. After measuring the baseline latencies, increasing doses of each drug were administered via an intrathecal catheter until each animal in the group became an analgesic responder. An analgesic responder was defined as one whose response tail-flick latency was two or more times the value of the baseline latency. The response latency after each dosing was determined at peak analgesia, which was 15, 30 and 45 min after the administration of the MOR, DALDA and [Dmt^1]DALDA, respectively (based on preliminary studies). Any subsequent dosing was performed immediately after the determination of response latency. The percentage of analgesic responders in the group of rats for each cumulative dose was calculated, and a cumulative dose-response curve was constructed. The dose-response data were analyzed by the BLISS-21 computer program. This program maximized the log-likelihood function to fit a parallel set of gaussian normal sigmoid curves to the dose-response data and provides ED50 values, 95% confidence interval (CI) and relative potency estimates (Umans and Inturrisi, 1981).
The effect of naloxone on the antinociceptive effects of intrathecal MOR, DALDA and [Dmt^1]DALDA was examined. An equipotent dose (3 times the ED50 value determined in Study 1) of MOR, DALDA or [Dmt^1]DALDA was given via an intrathecal catheter. Tail-flick latencies were measured prior to the administration of any drug and at the time of peak analgesia for each compound (at 15, 30 and 45 minutes after administration, for MOR, DALDA and [Dmt^1]DALDA, respectively). Naloxone hydrochloride at a dose of 82.5 nmol or saline was administered via the intrathecal catheter 10 minutes prior to the second tail-flick testing. Four rats were tested for each combination of drugs. Data were analyzed using the paired t-test.
A dose 3 times the ED50 value of MOR, DALDA, or [Dmt^1]DALDA was administered intrathecally. Tail-flick latencies were measured prior to the administration of any drug (=baseline latency) and at the time of peak analgesia (=response latency). […]

Series [3] concerns Male Sprague-Dawley rats. The experiment in a line: Respiratory effects: minute ventilation (VE) under 5% CO2 challenge, whole body plethysmography. Conditions: for minimum VE compared with saline group: intrathecal. It counts as in vivo, rat. As for the experimental part:
The effects of each drug on minute ventilation (VE) under 5% CO2 challenge were evaluated using whole body plethysmography (Tatsumi et al., 1991). An unrestrained rat was placed in a 3-liter whole-body plethysmograph chamber. After a 15-min acclimation period, a gas mixture of 5% CO2 and 21% O2 in N2 (100% humidified) was supplied into and out of the chamber at a rate of 1000 ml/min, and the animal was allowed to breathe the gas mixture for 5 minutes. After a steady-state ventilatory condition had been reached, with the animal awake and quiet, the inlet and outlet of the chamber were closed and the pressure changes in the box (due to the warming and wetting of the gas inspired by the rat and the cooling and drying of the expired gas) were recorded using a high-gain differential pressure transducer. A calibration volume of 0.2 ml of air was regularly introduced into the chamber during the recordings. The recordings were made for 20 to 30 seconds. Tidal volumes were calculated from the pressure changes using the equation derived by Drorbaugh and Fenn (1955). Respiratory frequencies were determined from the number of respiratory cycles in the recordings and VE values were calculated (tidal volume×frequency).
Rats were randomly assigned to one of 7 groups. The number of rats in each group was 6 to 10. The animals of each group were given 3 times (lower dose) or 30 times (higher dose) the ED50 value (antinociceptive) of MOR, DALDA or [Dmt^1]DALDA, or saline by direct percutaneous intrathecal injection. VE under 5% CO2 challenge was determined prior to and every hour up to 10 hours after the administration of the drug. VE values were expressed as a percentage of the baseline VE value obtained prior to the administration of any drug. The smallest VE value obtained after the administration of a drug (minimum V E) was determined for each animal. Mean values of the minimum V E for animals of each group were compared using the one-way analysis of variance followed by the Dunnett's test. For each animal, respiratory depression was defined as a minimum VE value that is below two standard deviations of the mean (mean−2×SD) of the saline group.
A minimum VE value (see Materials and Methods) less than the mean−(2×S.D.) of the minimum VE value of the saline group was considered a “low minimum VE”.

Where [4] appears, read: naloxone hydrochloride 82.5 nmol intrathecal 10 min prior to measurement.
[5] abbreviates: high dose (30 times antinociceptive ED50).
Where [6] appears, read: higher dose, 30 times ED50 (Morphine 100 nmol of 10 rats, DALDA 7 nmol of 8, [Dmt1]DALDA 34 pmol of 7).
Where [7] appears, read: low dose (3 times antinociceptive ED50).
Setting [8] is: lower dose, 3 times ED50 (Morphine 10 nmol, DALDA 0.7 nmol, [Dmt1]DALDA 3.4 pmol), 6 rats per group.

Turning to `NCCCC[C@H](NC(=O)[C@H](Cc1ccccc1)NC(=O)[C@@H](CCCN=C(N)N)NC(=O)[C@@H](N)Cc1ccc(O)cc1)C(N)=O` [DALDA, H-Tyr-D-Arg-Phe-Lys-NH2], the “rigidity of the caudal part of the body” value with Male Sprague-Dawley rats [1] is “Rigidity of the caudal part of the body was observed in each animal”. In addition, the sedative effects result with Male Sprague-Dawley rats [1] (higher dose, coincided with respiratory depression) was “showed sedative effects”. In addition, in the series on Male Sprague-Dawley rats [2], the “time for which tail-flick latencies were significantly greater than baseline” value was 7 h. Moreover, the “Response Latencies” value is “not different from baseline values” in the series with Male Sprague-Dawley rats [2] (setting [4]) and ≥ 7 (cut-off latency)* s in the series on Male Sprague-Dawley rats [2] (saline 10 min prior to measurement, cut-off 7 s, listed as DALDA + saline). Also, the “Potency Ratios” value with Male Sprague-Dawley rats [2] is 14 and 14.1. In addition, the EDT50 in the series with Male Sprague-Dawley rats [2] (intrathecal) is recorded as 237 pmol. Also, the “Baseline Latencies” value in the series on Male Sprague-Dawley rats [2] was 2.63 ± 0.15 s. Also, in the series on Male Sprague-Dawley rats [3] (four rats of the higher dose DALDA group), the “minimum VE” value is “less than 60 % of baseline”. Besides, the “minimum VE compared with saline group” value in the series with Male Sprague-Dawley rats [3] (setting [5]) and in the series on Male Sprague-Dawley rats [3] (setting [7]) was “significantly lower minimum VE” throughout. For the same compound, the “Time of Occurrence of Low Minimum VE” value with Male Sprague-Dawley rats [3] (higher dose, 30 times ED50) is given as 3-5 h after administration; in the series on Male Sprague-Dawley rats [3] (lower dose, 3 times ED50), 3-5 h after administration. The “No. of Rats with Low Minimum VE” value in the series on Male Sprague-Dawley rats [3] (setting [6]) and with Male Sprague-Dawley rats [3] (setting [8]) was 4 in each case.
Take `CN1CC[C@]23c4c5ccc(O)c4O[C@H]2[C@@H](O)C=C[C@H]3[C@H]1C5` [Morphine, morphine, reference compound]: the “rigidity of the caudal part of the body” value in the series with Male Sprague-Dawley rats [1] was “Rigidity of the caudal part of the body was observed in each animal”. For the same compound, the “time for which tail-flick latencies were significantly greater than baseline” value in the series with Male Sprague-Dawley rats [2] was 3 h. For the same compound, the “Response Latencies” value with Male Sprague-Dawley rats [2] (setting [4]) was “not different from baseline values”; in the series on Male Sprague-Dawley rats [2] (saline 10 min prior to measurement, cut-off 7 s, listed as MOR + saline), ≥ 7 (cut-off latency)* s. Also, in the series with Male Sprague-Dawley rats [2] (intrathecal), the EDT50 is 3330 pmol. Besides, the “Baseline Latencies” value with Male Sprague-Dawley rats [2] is listed as 2.78 ± 0.50 s. Moreover, in the series with Male Sprague-Dawley rats [3] (setting [5]), the “minimum VE compared with saline group” value was “significantly lower”. Also, the “Time of Occurrence of Low Minimum VE” value is reported as 3-5 h after administration with Male Sprague-Dawley rats [3] (higher dose, 30 times ED50) and 4 h after administration in the series with Male Sprague-Dawley rats [3] (lower dose, 3 times ED50). The “No. of Rats with Low Minimum VE” value in the series with Male Sprague-Dawley rats [3] (setting [6]) is given as 4; with Male Sprague-Dawley rats [3] (setting [8]) it was 1; in the series on Male Sprague-Dawley rats [3] (lower dose, 3 times ED50 (Morphine 10 nmol, DALDA 0.7 nmol, [Dmt1]DALDA 3.4 pmol), 6 rats per group, listed as MOR) it was “one”.
For `Cc1cc(O)cc(C)c1C[C@H](N)C(=O)N[C@H](CCCNC(=N)N)C(=O)N[C@@H](Cc1ccccc1)C(=O)N[C@@H](CCCCN)C(N)=O` [[Dmt^1]DALDA, 2′,6′-dimethyl-Tyr-D-Arg-Phe-Lys-NH2], the “rigidity of the caudal part of the body” value in the series with Male Sprague-Dawley rats [1] is recorded as “Rigidity of the caudal part of the body was observed in each animal”. In the series on Male Sprague-Dawley rats [2], the “time for which tail-flick latencies were significantly greater than baseline” value was 13 h; the “Potency Ratios” value is 3000 and 3160; the “Baseline Latencies” value was determined as 2.83 ± 0.17 s. In the series on Male Sprague-Dawley rats [2] (setting [4]), the “Response Latencies” value was “not different from baseline values”. Further, in the series with Male Sprague-Dawley rats [2] (saline 10 min prior to measurement, cut-off 7 s, listed as [Dmt^1]DALDA + saline), the “Response Latencies” value is listed as ≥ 7 (cut-off latency)* s. Besides, in the series with Male Sprague-Dawley rats [2] (after intrathecal administration), the “potency relative to DALDA in the rat tail flick test” value is 200 fold. In the series on Male Sprague-Dawley rats [2] (intrathecal), the EDT50 was determined as 1.06 pmol. For the same compound, the “effect of added yohimbine (100 μg) on the antinociceptive effect” value with Male Sprague-Dawley rats [2] (intrathecal, [Dmt1]DALDA 1.1 pmol or DALDA 240 pmol with yohimbine) was “significantly attenuated”. The “minimum VE compared with saline group” value in the series with Male Sprague-Dawley rats [3] (setting [5]) is given as “not different”. Besides, the “Time of Occurrence of Low Minimum VE” value with Male Sprague-Dawley rats [3] (higher dose, 30 times ED50) stood at 3 h after administration. Also, the “minimum VE compared with saline group” value in the series with Male Sprague-Dawley rats [3] (setting [7]) is reported as “not different”.
